ChEMBL document CHEMBL1138645, “Carbonic anhydrase inhibitors. Interaction of isozymes I, II, IV, V, and IX with phosphates, carbamoyl phosphate, and the phosphonate antiviral drug foscarnet” (Bioorg Med Chem Lett, 2004)

Columns and labels:
Carbonic anhydrase 1 [1] = target: T1, Carbonic anhydrase 1 (Homo sapiens, UniProt P00915); assay: Inhibition constant of anion against human carbonic anhydrase isozyme hCA I
Carbonic anhydrase V = Carbonic anhydrase V (Homo sapiens, UniProt Q9Y2D0+P35218); assay: Inhibition constant of anion against human carbonic anhydrase isozyme hCA V; format: protein assay
Carbonic anhydrase 2 = Carbonic anhydrase 2 (Homo sapiens, UniProt P00918); assay: Inhibition constant of anion against human carbonic anhydrase isozyme hCA II
Carbonic anhydrase 4 = Carbonic anhydrase 4 (Homo sapiens, UniProt P22748); assay: Inhibition constant of anion against human carbonic anhydrase isozyme hCA IV
Sequence of Carbonic anhydrase 4 (P22748 whole entry): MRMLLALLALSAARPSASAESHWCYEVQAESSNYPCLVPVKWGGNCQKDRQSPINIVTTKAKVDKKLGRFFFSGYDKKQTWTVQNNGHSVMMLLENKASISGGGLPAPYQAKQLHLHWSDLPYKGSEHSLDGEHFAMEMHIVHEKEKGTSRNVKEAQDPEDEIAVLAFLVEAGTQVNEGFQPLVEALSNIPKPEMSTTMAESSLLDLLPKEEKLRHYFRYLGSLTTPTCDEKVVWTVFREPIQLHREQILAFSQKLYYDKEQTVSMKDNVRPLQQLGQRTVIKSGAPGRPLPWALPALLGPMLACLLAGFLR

Carbonic anhydrase 9 = Carbonic anhydrase 9 (Homo sapiens, UniProt Q16790); assay: Inhibition constant of anion against human carbonic anhydrase isozyme hCA IX
Carbonic anhydrase 1 [2] = target: T1, Carbonic anhydrase 1; assay: Inhibition constant of anion against human carbonic anhydrase isozyme hCA I; A = activator

T1 sequence (P00915 whole entry): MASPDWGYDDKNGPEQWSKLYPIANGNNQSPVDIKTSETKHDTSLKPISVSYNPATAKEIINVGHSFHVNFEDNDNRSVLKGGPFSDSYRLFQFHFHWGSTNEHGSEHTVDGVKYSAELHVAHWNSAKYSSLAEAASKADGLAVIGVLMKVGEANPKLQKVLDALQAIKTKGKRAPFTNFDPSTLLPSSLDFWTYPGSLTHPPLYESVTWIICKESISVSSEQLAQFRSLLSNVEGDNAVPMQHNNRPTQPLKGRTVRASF

| SMILES | Ki (Carbonic anhydrase 1 [1]) [mM] | Ki (Carbonic anhydrase V) [mM] | Ki (Carbonic anhydrase 2) [mM] | Ki (Carbonic anhydrase 4) [mM] | Ki (Carbonic anhydrase 9) [mM] | Ki (Carbonic anhydrase 1 [2]) |
| --- | --- | --- | --- | --- | --- | --- |
| NC(=O)OP(=O)([O-])[O-].[Na+].[Na+] [CARBAMOYL PHOSPHATE; DI SODIUM] | 0.0094 | 0.0085 | 0.31 | 0.0099 | 3.06 | – |
| O=C([O-])P(=O)([O-])[O-].[Na+].[Na+].[Na+] [FOSCARNET SODIUM] | – | 41.7 | 14.2 | 0.82 | 2.21 | Activator |
| O=C([O-])O.[Na+] [SODIUM BICARBONATE] | – | 82 | – | 6.6 | 13 | – |
| O=C([O-])[O-].[Na+].[Na+] [SODIUM CARBONATE] | – | 95 | – | 5.7 | – | – |
| O=C[O-].[Na+] [SODIUM FORMATE] | – | 9.97 | 24 | – | 1.22 | Activator |
| O=P([O-])([O-])O.[Na+].[Na+] [SODIUM PHOSPHATE, DIBASIC, ANHYDROUS] | – | 4.49 | – | – | – | Activator |
| O=P([O-])(O)O.[Na+] [SODIUM PHOSPHATE, MONOBASIC] | – | 3.3 | – | – | – | Activator |
